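GI50 marks 50% less growth. TGI: concentration producing complete growth inhibition.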
Tests used:
Assay in all cases: NCI tumour cell line growth inhibition, 384-well format
[1] = test system: 786-0 renal
[2] = test system: A498 renal
[3] = test system: A549 NSCLC
[4] = test system: ACHN renal
[5] = test system: BT-549 breast
[6] = test system: CAKI-1 renal
[7] = test system: CCRF-CEM leukemia
[8] = test system: COLO 205 colon
[9] = test system: DU-145 prostate
[10] = test system: EKVX NSCLC
[11] = test system: HCC-2998 colon
[12] = test system: HCT-116 colon
[13] = test system: HCT-15 colon
[14] = test system: HL-60(TB) leukemia
[15] = test system: HOP-62 NSCLC
[16] = test system: HOP-92 NSCLC
[17] = test system: HS 578T breast
[18] = test system: HT29 colon
[19] = test system: IGROV1 ovarian
[20] = test system: K-562 leukemia
[21] = test system: KM12 colon
[22] = test system: LOX IMVI melanoma
[23] = test system: M14 melanoma
[24] = test system: MALME-3M melanoma
[25] = test system: MCF7 breast
[26] = test system: MDA-MB-231 breast
[27] = test system: MDA-MB-435 melanoma
[28] = test system: MDA-MB-468 breast
[29] = test system: MOLT-4 leukemia
[30] = test system: NCI-H226 lung
[31] = test system: NCI-H23 lung
[32] = test system: NCI-H322M lung
[33] = test system: NCI-H460 NSCLC
[34] = test system: NCI-H522 lung
[35] = test system: NCI/ADR-RES ovarian
[36] = test system: OVCAR-3 ovarian
[37] = test system: OVCAR-4 ovarian
[38] = test system: OVCAR-5 ovarian
[39] = test system: PC-3 prostate
[40] = test system: RPMI-8226 leukemia
[41] = test system: RXF 393 renal
[42] = test system: SF-268 CNS
[43] = test system: SF-295 CNS
[44] = test system: SF-539 CNS
[45] = test system: SK-MEL-2 melanoma
[46] = test system: SK-MEL-28 melanoma
[47] = test system: SK-MEL-5 melanoma
[48] = test system: SK-OV-3 ovarian
[49] = test system: SN12C renal
[50] = test system: SNB-19 CNS
[51] = test system: SNB-75 CNS
[52] = test system: SR leukemia
[53] = test system: SW-620 colon
[54] = test system: T-47D breast
[55] = test system: TK-10 renal
[56] = test system: U251 glioblastoma
[57] = test system: UACC-257 melanoma
[58] = test system: UACC-62 melanoma
[59] = test system: UO-31 renal

CC1(C)CNc2cc(NC(=O)c3cccnc3NCc3ccncc3)ccc21
GI50 [1]: 35.8 µM | TGI [1]: > 100 µM | GI50 [2]: 25.6 µM | TGI [2]: > 100 µM | GI50 [3]: 31.2 µM | TGI [3]: > 100 µM | GI50 [4]: 10.7 µM | TGI [4]: 64.5 µM | GI50 [5]: 26.1 µM | TGI [5]: 65.5 µM | GI50 [6]: 19.4 µM | TGI [6]: > 100 µM | GI50 [7]: 12.7 µM | TGI [7]: 27.6 µM | GI50 [8]: 31.6 µM | TGI [8]: > 100 µM | GI50 [9]: 21.3 µM | TGI [9]: > 100 µM | GI50 [10]: 17.9 µM | TGI [10]: 48.6 µM | GI50 [11]: 38 µM | TGI [11]: > 100 µM | GI50 [12]: 46.7 µM | TGI [12]: > 100 µM | GI50 [13]: 16.6 µM | TGI [13]: 44.7 µM | GI50 [14]: 25.5 µM | TGI [14]: 42.4 µM | GI50 [15]: 70.9 µM | TGI [15]: > 100 µM | GI50 [16]: 21.1 µM | TGI [16]: 83.3 µM | GI50 [17]: 15.8 µM | TGI [17]: 40.5 µM | GI50 [18]: 24.6 µM | TGI [18]: 66.8 µM | GI50 [19]: 12.5 µM | TGI [19]: 40.3 µM | GI50 [20]: 12.7 µM | TGI [20]: 52.5 µM | GI50 [21]: 38.8 µM | TGI [21]: > 100 µM | GI50 [22]: 24.9 µM | TGI [22]: 52.5 µM | GI50 [23]: 24.9 µM | TGI [23]: > 100 µM | GI50 [24]: 20.1 µM | TGI [24]: 66.5 µM | GI50 [25]: 23.3 µM | TGI [25]: > 100 µM | GI50 [26]: 24.5 µM | TGI [26]: 82 µM | GI50 [27]: 29.4 µM | TGI [27]: 98.4 µM | GI50 [28]: 9.35 µM | TGI [28]: 25.1 µM | GI50 [29]: 12.7 µM | TGI [29]: 26.5 µM | GI50 [30]: 9.96 µM | TGI [30]: 31.4 µM | GI50 [31]: 25.8 µM | TGI [31]: 82.9 µM | GI50 [32]: 33.4 µM | TGI [32]: > 100 µM | GI50 [33]: 25.1 µM | TGI [33]: > 100 µM | GI50 [34]: 20.4 µM | TGI [34]: 50.2 µM | GI50 [35]: 17.8 µM | TGI [35]: 42.7 µM | GI50 [36]: 14.8 µM | TGI [36]: 40.6 µM | GI50 [37]: 13.7 µM | TGI [37]: 60.6 µM | GI50 [38]: 52.9 µM | TGI [38]: > 100 µM | GI50 [39]: 43.2 µM | TGI [39]: > 100 µM | GI50 [40]: 16 µM | TGI [40]: 41.6 µM | GI50 [41]: 11 µM | TGI [41]: 29.6 µM | GI50 [42]: 25.2 µM | TGI [42]: 88.9 µM | GI50 [43]: 35.7 µM | TGI [43]: > 100 µM | GI50 [44]: 14.3 µM | TGI [44]: > 100 µM | GI50 [45]: 39.2 µM | TGI [45]: 58.3 µM | GI50 [46]: 37.8 µM | TGI [46]: > 100 µM | GI50 [47]: 13.1 µM | TGI [47]: 28.3 µM | GI50 [48]: 18.6 µM | TGI [48]: 61.4 µM | GI50 [49]: 30.4 µM | TGI [49]: > 100 µM | GI50 [50]: 44.8 µM | TGI [50]: > 100 µM | GI50 [51]: 22.1 µM | TGI [51]: 80.9 µM | GI50 [52]: 11.4 µM | TGI [52]: 24.3 µM | GI50 [53]: 49.6 µM | TGI [53]: > 100 µM | GI50 [54]: 14.9 µM | TGI [54]: 47.3 µM | GI50 [55]: 14.2 µM | TGI [55]: > 100 µM | GI50 [56]: 46 µM | TGI [56]: > 100 µM | GI50 [57]: 30.9 µM | TGI [57]: > 100 µM | GI50 [58]: 19.1 µM | TGI [58]: 97.7 µM | GI50 [59]: 25 µM | TGI [59]: 85.5 µM

— PubChem BioAssay (NCI)
